From patent US8907126B2, “Tyrosine derivative and method for producing tyrosine derivative” (NARD Institute, Ltd., priority 2012, dated 2014)

Target: T1, human recombinant melatonin MT1 receptors (Homo sapiens, UniProt P48039)
T1 construct: expressed in transfected cells; host or cells: CHO-K1 cells (membranes)
Assay: Inhibitory activity test against melatonin MT1 receptor ([35S]GTPγS binding, SPA)
Type: biochemical
Conditions: membranes of CHO-K1 cells expressing MT1, 0.1 nM 2-iodomelatonin, 0.3 nM [35S]GTPγS, HEPES buffer pH 7.4; test concentration not given
Description: An inhibitory activity of the tyrosine derivative of the present invention against a melatonin MT1 receptor was evaluated. Specifically, human recombinant melatonin MT1 receptors expressed in CHO-K1 cells were used in modified HEPES buffer pH 7.4. The tyrosine derivative obtained in the above Example 8 was preincubated with 0.025 mg/mL of membranes of the cell and 1 μM of guanosine diphosphate in modified HEPES buffer (pH 7.4) at 25° C. for 20 minutes, then SPA, i.e. Scintillation proximity assay, beads were added thereto. The mixture was preincubated at 30° C. for 60 minutes. The reaction was initiated by adding 0.3 nM of [^35S]GTPγS and incubating the mixture for 30 minutes, and the test compound-induced inhibition of 0.1 nM 2-iodomelatonin-induced increase of [^35S]GTPγS binding response was measured.

T1 sequence (P48039 whole entry): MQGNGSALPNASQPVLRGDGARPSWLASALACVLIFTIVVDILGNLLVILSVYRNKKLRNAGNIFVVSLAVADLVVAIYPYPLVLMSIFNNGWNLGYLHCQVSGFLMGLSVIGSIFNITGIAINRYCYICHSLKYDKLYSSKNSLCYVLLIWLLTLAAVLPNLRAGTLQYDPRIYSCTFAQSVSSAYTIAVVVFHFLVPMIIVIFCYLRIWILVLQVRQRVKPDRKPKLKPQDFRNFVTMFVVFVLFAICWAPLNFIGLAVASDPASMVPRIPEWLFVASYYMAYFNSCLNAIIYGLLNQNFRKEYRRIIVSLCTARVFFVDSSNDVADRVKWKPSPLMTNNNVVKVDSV

CC(C)(C)OC(=O)NC(Cc1cc(OCCCl)ccc1I)C(=O)OC(C)(C)C (stereo not shown) [Example 8]
inhibition of 2-iodomelatonin-induced increase of [35S]GTPγS binding response: 33%
